≈ marks a conversion by molar mass, not a printed value.

Test system in the first series: not listed separately
The experiment in a line: Water solubility of the fredericamycin derivatives. Particulars: 0.9% NaCl solution, pH 7. The format is physicochemical. From the text: The water solubility of the various fredericamycin derivatives can be determined in a 0.9% NaCl solution with a pH of 7.
Take `COC1=CC(=O)c2c(O)c3c(c(O)c2C1=O)C(=O)C1(CCc2cc4cc(C(O)C(O)C(O)C(C)O)[nH]c(=O)c4c(O)c21)C3=O` [Example 2, Tri-potassium-1-desoxy-5-C-[(8R)-4′,9,9′-trihydroxy-6′-methoxy-1,1′,3′,5′,8′-pentaoxo-1,1′,2,3′,5′,6,7,8′-octahydrospiro[cyclopenta[g]isoquinoline-8,2′-cyclopenta[b]-naphthalene]-3-yl]pentitol]: the water solubility result is listed as “soluble”.

On to `COC1=CC(=O)c2c(O)c3c(c(O)c2C1=O)C(=O)[C@]1(CCc2cc4cc(C=O)[nH]c(=O)c4c(O)c21)C3=O` [Example 3, (8S)-4′,9,9′-trihydroxy-6′-methoxy-1,1′,3′,5′,8′-pentaoxo-1,1′,2,3′,5′,6,7,8′-octahydrospiro[cyclopenta[g]isoquinoline-8,2′-cyclopenta[b]-naphthalene]-3-carbaldehyde], for which the water solubility entry is “dissolve very well”.

On to `COC1=CC(=O)c2c(O)c3c(c(O)c2C1=O)C(=O)[C@]1(CCc2cc4cc(/C=N/NC(=O)C[n+]5ccccc5)[nH]c(=O)c4c(O)c21)C3=O.[Cl-]` [Example 5, 1-[2-Oxo-2-((2E)-2-{[(8S)-4′,9,9′-trihydroxy-6′-methoxy-1,1′,3′,5′,8′-pentaoxo-1,1′,2,3′,5′,6,7,8′-octahydrospiro[cyclopenta[g]isoquinoline-8,2′-cyclopenta[b]-naphthalene]-3-yl]methylene}hydrazino)-ethyl]pyridinium chloride], for which the water solubility entry was “sufficiently and markedly better soluble than fredericamycin”.

For the compound `CON=Cc1cc2cc3c(c(O)c2c(=O)[nH]1)[C@@]1(CC3)C(=O)c2c(O)c3c(c(O)c2C1=O)C(=O)C(OC)=CC3=O` [Example 7, (8S)-4′,9,9′-trihydroxy-6′-methoxy-1,1′,3′,5′,8′-pentaoxo-1,1′,2,3′,5′,6,7,8′-octahydrospiro[cyclopenta[g]isoquinoline-8,2′-cyclopenta[b]-naphthalene]-3-carbaldehyde-O-methyloxime], the water solubility entry is “sufficiently and markedly better soluble than fredericamycin”.

Turning to `COC1=CC(=O)c2c(O)c3c(c(O)c2C1=O)C(=O)[C@]1(CCc2cc4cc(C(=O)O)[nH]c(=O)c4c(O)c21)C3=O` [Example 11, (8S)-4′,9,9′-trihydroxy-6′-methoxy-1,1′,3′,5′,8′-pentaoxo-1,1′,2,3′,5′,6,7,8′-octahydrospiro[cyclopenta[g]isoquinoline-8,2′-cyclopenta[b]-naphthalene]-3-carboxylic acid], the water solubility result is “sufficiently and markedly better soluble than fredericamycin”.

For `COC1=CC(=O)c2c(O)c3c(c(O)c2C1=O)C(=O)[C@]1(CCc2cc4cc(C(=O)[O-])[nH]c(=O)c4c(O)c21)C3=O.[K+]` [Example 12, Potassium(8S)-4′,9,9′-trihydroxy-6′-methoxy-1,1′,3′,5′,8′-pentaoxo-1,1′,2,3′,5′,6,7,8′-octahydrospiro[cyclopenta[g]isoquinoline-8,2′-cyclopenta[b]-naphthalene]-3-carboxylate], the water solubility result is “sufficiently and markedly better soluble than fredericamycin”.

Turning to “(8S)-4′,9,9′-trihydroxy-6′-methoxy-1,1′,3′,5′,8′-pentaoxo-1,1′,2,3′,5′,6,7,8′-octahydrospiro[cyclopenta[g]isoquinoline-8,2′-cyclopenta[b]-naphthalene]-1,1′,3′,5′,8′(2H)-pentone [Example 10]”, the water solubility entry is given as “soluble”.

With “(8S)-4′,9,9′-trihydroxy-6′-methoxy-1,1′,3′,5′,8′-pentaoxo-1,1′,2,3′,5′,6,7,8′-octahydrospiro[cyclopenta[g]isoquinoline-8,2′-cyclopenta[b]-naphthalene]-3-carbaldehyde oxime [Example 6]”, the water solubility entry is on record as “dissolves well”.

In the case of “(8S)-5-bromo-4′,9,9′-trihydroxy-6′-methoxy-1,1′,3′,5′,8′-pentaoxo-1,1′,2,3′,5′,6,7,8′-octahydrospiro[cyclopenta[g]isoquinoline-8,2′-cyclopenta[b]-naphthalene]-1,1′,3′,5′,8′(2H)-pentone [Example 13]”, the water solubility result is reported as “soluble”.

Test system in a further series: not listed separately
In words: Biological activity against 12 cancer cell lines, efficacy (IC70) averaged over all cell lines.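 Also: panel also covers renal lines RXF 944L and RXF 486L, uterine UXF 1138L, and prostate lines PRXF PC3M and PRXF 22RV1.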 The format is cell-based. As to conditions: averaged over all 12 cancer cell lines, 5 test concentrations.
Protocol: (§1) LCL (H460, lung), MACL (MCF7, breast), LXFL (52L, lung), LXFA (629L, lung), MEXF (462NL, melanoma), MEXF (514L, melanoma), MAXF (401NL, breast), RXF (944L, renal), RXF (486L, renal), UXF (1138L, uterus), PRXF (PC3M, prostate), PRXF (22RV1).
For orientation: IC70 means the concentration at which the effect reaches the 70% level. High values mean a need for much substance, low ones an effect from little substance. As for `COc1cccc2c1C(=O)c1c(O)c3c(c(O)c1C2=O)C[C@@](O)(C(=O)CO)C[C@@H]3O[C@H]1C[C@H](N)[C@H](O)[C@H](C)O1` [adriamycin], the IC70 is 0.021 µg/mL (≈ 0.0386 µM).

Regarding `C/C=C/C=C/c1cc2cc3c(c(O)c2c(=O)[nH]1)C1(CC3)C(=O)c2c(O)c3c(c(O)c2C1=O)C(=O)C(OC)=CC3=O` (centres unmarked) [fredericamycin, fredericamycin A], the 70% effect level (IC70) was put at 0.279 µg/mL (≈ 0.517 µM).

For a further series, the system named is 12 cancer cell lines: LCL (H460, lung), MACL (MCF7, breast), LXFL (52L, lung), LXFA (629L, lung), MEXF (462NL, melanoma), MEXF (514L, melanoma), MAXF (401NL …). Described as above. It counts as cell-based. As to conditions: averaged over all 12 cancer cell lines, 5 test concentrations.
Protocol: as §1
`COC1=CC(=O)c2c(O)c3c(c(O)c2C1=O)C(=O)[C@@]1(CCc2cc4cc(C(O)C(O)C(O)C(C)O)[nH]c(=O)c4c(O)c21)C3=O` (stereo partly drawn) [Example 1, 1-Desoxy-5-C-[(8R)-4′,9,9′-trihydroxy-6′-methoxy-1,1′,3′,5′,8′-pentaoxo-1,1′,2,3′,5′,6,7,8′-octahydrospiro[cyclopenta[g]isoquinoline-8,2′-cyclopenta[b]-naphalene]-3-yl]pentitol] showed a concentration for an effect of 70% (IC70) of 0.1130 µg/mL (≈ 0.186 µM).

Compound `C/C=C/C=C/c1cc2cc3c(c(O)c2c(=O)[nH]1)[C@@]1(CC3)C(=O)c2c(O)c3c(c(O)c2C1=O)C(=O)C(NC)=CC3=O` [Example 265] came in with a concentration for an effect of 70% (IC70) of 0.1330 µg/mL (≈ 0.247 µM).

For `N.N.[Cl][Pt][Cl]` [cisplatin], the concentration for an effect of 70% (IC70) was determined as 37.1020 µg/mL.

Consider “(8S)-5-bromo-4′,9,9′-trihydroxy-6′-methoxy-1,1′,3′,5′,8′-pentaoxo-1,1′,2,3′,5′,6,7,8′-octahydrospiro[cyclopenta[g]isoquinoline-8,2′-cyclopenta[b]-naphthalene]-1,1′,3′,5′,8′(2H)-pentone [Example 13]”, for which the concentration for an effect of 70% (IC70) is 0.0050 µg/mL.

Regarding “(8S)-5-chloro-4′,6′,9′-trimethoxy-2-methoxy-3-[(1E,3E)-penta-1,3-dienyl]-6,7-dihydrospiro[cyclopenta[g]isoquinoline-8,2′-cyclopenta[b]-naphthalene]-1,1′,3′,5′,8′(2H)-pentone [Example 22]”, the IC70 is 0.0080 µg/mL.

Test system in another series: not listed separately
In words: Water solubility of the fredericamycin derivatives. It counts as physicochemical. Particulars: statement in the synthesis text, medium not given.
As for `COC1=CC(=O)c2c(O)c3c(c(O)c2C1=O)C(=O)C1(CCc2cc4cc(C(O)C(O)C(O)C(C)O)[nH]c(=O)c4c(O)c21)C3=O` [Example 2, Tri-potassium-1-desoxy-5-C-[(8R)-4′,9,9′-trihydroxy-6′-methoxy-1,1′,3′,5′,8′-pentaoxo-1,1′,2,3′,5′,6,7,8′-octahydrospiro[cyclopenta[g]isoquinoline-8,2′-cyclopenta[b]-naphthalene]-3-yl]pentitol], the “water solubility compared to fredericamycin (1)” value is on record as “significantly higher water solubility”.
